From patent US20090246292A1, “ANTIMICROBIAL FORMULATIONS COMPRISING A QUINONE AND A COPPER SALT” (priority 2006, published 2009)

How the values were obtained:
P. acnes PRP-017 = assay: Disc diffusion assay (DDA), also supplemented; assay type: cell-based, Propionibacterium acnes; details: 200 μg per disc
P. acnes PRP-068 = assay: Disc diffusion assay (DDA), also supplemented; assay type: cell-based, Propionibacterium acnes; details: 200 μg per disc
Description: The propionibacteria were cultured and maintained on Wilkins-Chalgren Anaerobe Medium (agar and broth) at pH 6.0; all cultures were incubated anaerobically at 37° C. for 72 hours.
A sterile paper disc was impregnated with a sample of the test compound in a suitable solvent and 30 minutes allowed for the solvents to evaporate (where possible). The disc was then placed on an agar plate onto which the test micro-organism had been inoculated. The plate was then incubated under the conditions described above, following which it was examined visually for signs of bacterial growth. […] The diameter of this zone of “inhibition” was measured using a ProtoCOL™ automated zone sizer (Synbiosis, Cambridge, UK).
For assays using Propionibacterium spp. strains the supplements used in the examples below were lipid (either Tween™ 80 or triolein, both at 1% v/v) and sodium chloride (100 mM).

O.O.O.O.O.O=S(=O)([O-])[O-].[Cu+2] [Copper (II) sulphate pentahydrate]
DDA + salt (P. acnes PRP-017): 56.85 mm | DDA + lipid (P. acnes PRP-017; 1% (v/v) triolein): 55.03 mm | DDA (P. acnes PRP-017; single replicate): 51.38 mm | DDA (P. acnes PRP-017; Table 12 series): 46.31 mm | DDA + salt (P. acnes PRP-068): 54.73 mm | DDA + lipid (P. acnes PRP-068; 1% (v/v) triolein): 49.56 mm | DDA (P. acnes PRP-068; single replicate): 52.90 mm | DDA (P. acnes PRP-068; Table 12 series): 51.12 mm
